Assay results taken from US11851440B2, “Modulators of eukaryotic initiation factor 2B, compositions and methods” (Denali Therapeutics Inc., priority 2017, dated 2023).

system: ISR pathway (ATF4 translation); assay: ATF4 Nano Luciferase reporter integrated stress response (ISR) assay in H4 ATF4-NLuc cells; details: Homo sapiens, H4 ATF4-NLuc (clone 17) cells; compound 30 minutes, then 50 um sodium arsenite for 6 hours; luminescence readout

IC50 | SMILES
2.5 nM | O=C(COc1ccc(Cl)c(F)c1)NC12CC(c3nnc([C@H]4C[C@@H](OC(F)(F)F)C4)o3)(C1)C2 [Example 6, 2-(4-chloro-3-fluoro-phenoxy)-N-[1-[5-[cis-3-(trifluoromethoxy)cyclobutyl]-1,3,4-oxadiazol-2-yl]-3-bicyclo[1.1.1]pentanyl]acetamide]

same assay, conditions: Homo sapiens, read-out: Activity (IC50), H4 ATF4-NLuc (clone 17) cells; compound 30 minutes, then 50 um sodium arsenite for 6 hours; luminescence readout

IC50 | SMILES
< 1000 nM | O=C(COc1ccc(Cl)c(F)c1)NC12CC(c3nnc([C@H]4C[C@@H](OC(F)(F)F)C4)o3)(C1)C2 [Example 6, 2-(4-chloro-3-fluoro-phenoxy)-N-[1-[5-[cis-3-(trifluoromethoxy)cyclobutyl]-1,3,4-oxadiazol-2-yl]-3-bicyclo[1.1.1]pentanyl]acetamide]
< 1000 nM | O=C(CO[C@H]1C[C@@H](OC(F)(F)F)C1)NC12CC(c3cnc(-c4ccc(Cl)c(F)c4)o3)(C1)C2 [Example 247]
< 1000 nM | O=C(COc1ccc(Cl)c(F)c1)NC12CC(c3nnc(C4(F)CN(CC(F)(F)F)C4)o3)(C1)C2 [Example 93, 2-(4-chloro-3-fluoro-phenoxy)-N-[3-[5-[3-fluoro-1-(2,2,2-trifluoroethyl)azetidin-3-yl]-1,3,4-oxadiazol-2-yl]-1-bicyclo[1.1.1]pentanyl]acetamide]
< 1000 nM | O=C(COc1ccc(Cl)cc1)NC12CC(N3C[C@H](C4CC(OC(F)(F)F)C4)OS3(=O)=O)(C1)C2 (some centres unmarked) [Example 266]
< 1000 nM | O=C(COc1ccc(Cl)c(F)c1)NC12CC(c3cc(C4CCCC4)on3)(C1)C2 [Example 22, 2-(4-chloro-3-fluorophenoxy)-N-(3-(5-cyclopentylisoxazol-3-yl)bicyclo[1.1.1]pentan-1-yl)acetamide]
< 1000 nM | O=C(COc1ccc(Cl)cc1)NC12CC(n3cnc([C@H]4C[C@@H](OC(F)(F)F)C4)c3)(C1)C2 [Example 68, 2-(4-chlorophenoxy)-N-[3-[4-[3-cis-(trifluoromethoxy)cyclobutyl]imidazol-1-yl]-1-bicyclo[1.1.1]pentanyl]acetamide]
1000 to 10000 nM | O=C(CO[C@H]1C[C@@H](OC(F)(F)F)C1)NC12CC(c3nc4cc(Cl)ccc4o3)(C1)C2 [Example 234]

More lines, now with the values behind:

SMILES | IC50
CN(CCO[C@H]1C[C@@H](OC(F)(F)F)C1)C12CC(NC(=O)COc3ccc(Cl)c(F)c3)(C1)C2 [Example 132, 2-(4-chloro-3-fluoro-phenoxy)-N-[3-[methyl-[2-[3-cis-(trifluoromethoxy)cyclobutoxy]ethyl]amino]-1-bicyclo[1.1.1]pentanyl]acetamide] | < 1000 nM
O=C(COC1CCC1)NC12CC(c3nnc(COc4ccc(Cl)c(F)c4)[nH]3)(C1)C2 [Example 37, N-(3-(5-((4-chloro-3-fluorophenoxy)methyl)-4H-1,2,4-triazol-3-yl)bicyclo[1.1.1]pentan-1-yl)-2-cyclobutoxyacetamide] | 1000 to 10000 nM
Cc1nc(C2CC(OC(F)(F)F)C2)cn1C12CC(NC(=O)CO[C@H]3C[C@@H](OC(F)(F)F)C3)(C1)C2 (stereo partly drawn) [Example 96, N-[3-[2-methyl-4-[3-(trifluoromethoxy)cyclobutyl]imidazol-1-yl]-1-bicyclo[1.1.1]pentanyl]-2-[3-cis-(trifluoromethoxy)cyclobutoxy]acetamide] | < 1000 nM
O=C(CO[C@@H]1CC[C@H](OC(F)(F)F)C1)NC12CC(c3nnc([C@H]4C[C@@H](OC(F)(F)F)C4)o3)(C1)C2 [Example 114, N-[3-[5-[3-cis-(trifluoromethoxy)cyclobutyl]-1,3,4-oxadiazol-2-yl]-1-bicyclo[1.1.1]pentanyl]-2-[3-cis-(trifluoromethoxy)cyclopentoxy]acetamide] | 1000 to 10000 nM
O=C(CO[C@H]1C[C@@H](OC(F)(F)F)C1)NC12CC(c3cnn(-c4ccc(Cl)c(F)c4)n3)(C1)C2 [Example 78, N-[3-[2-(4-chloro-3-fluoro-phenyl)triazol-4-yl]-1-bicyclo[1.1.1]pentanyl]-2-[3-cis-(trifluoromethoxy)cyclobutoxy]acetamide] | < 1000 nM

same assay, conditions: read-out: Activity (IC50); H4 ATF4-NLuc (clone 17) cells; compound 30 minutes, then 50 um sodium arsenite for 6 hours; luminescence readout

SMILES | IC50
O=C(COc1ccc(Cl)cc1)NC12CC(c3nnc([C@H]4C[C@H](COC(F)(F)F)C4)o3)(C1)C2 [Example 87, 2-(4-chlorophenoxy)-N-[3-[5-[3-trans-(trifluoromethoxymethyl)cyclobutyl]-1,3,4-oxadiazol-2-yl]-1-bicyclo[1.1.1]pentanyl]acetamide] | < 1000 nM
